Experimental findings from patent US10231907B2, “Compositions for improving the health and appearance of skin” (Algenist Holdings, Inc., priority 2006, dated 2019) are described below.

The subject of one test is Fibroblasts. The test is described as follows: Procollagen synthesis (type I C-peptide ELISA) in fibroblast culture. In kind it is cell-based, human. The settings on record: 4 mM, 48 hours, mean ± SD. An excerpt: A fibroblast cell culture model was used to assess the ability of the polysaccharide from Porphyridium to exert an effect on procollagen synthesis. Fibroblasts are the main source of the extracelluar matrix peptides, including the structural protein collagen. Procollagen is a large peptide synthesized by fibroblasts in the dermal layer of the skin and is the precursor for collagen. As the peptide is processed to form a mature collagen protein, the propeptide portion is cleaved off (type I C-peptide). Both the mature collagen protein and the type I C-peptide fragment are then released into the extracellular environment. As collagen is synthesized the type I C-peptide fragment accumulates into the tissue culture medium. Since there is a 1:1 stoichiometric ratio between the two parts of the procollagen peptide, assaying for type I C-peptide reflects the amount of collagen synthesized. […]
A series of type I C-peptide standards was prepared ranging from 0 ng/ml to 640 ng/ml. […] After the incubation 100 μl of stop solution (1 N sulfuric acid) was added to each well and the plate was read using a microplate reader at 450 nm.
To quantify the amount of procollagen present, a standard curve was generated using known concentrations of procollagen. […] Absorbance values for the test and positive control samples was used to determine the amount of procollagen present. […]

The subject of test [1] is Porphyridium sp. and Porphyridium cruentum. As to the kind of experiment: Antibiotic sensitivity on agar plates. In kind it is cell-based. The settings on record: 14 days. As for the experimental part:
Approximately […] cells (300 ul of 1.5×10^5 cells per ml) of Porphyridium sp. and Porphyridium cruentum cultures in liquid ATCC 1495 ASW media were plated onto ATCC 1495 ASW agar plates (1.5% agar). The plates contained varying amounts of zeocin, sulfometuron, hygromycin and spectinomycin. The plates were put under constant artificial fluorescent light of approximately 480 lux. After 14 days, plates were checked for growth.

The test system of test [2] is MatTek EpiDerm® skin model (normal human-derived epidermal keratinocytes). The test is described as follows: TT dimer-UV exposure assay in MatTek EpiDerm skin model. In kind it is cell-based. To be noted: 1 mM, UVB 300 mJ/cm^2, mean ± SD. As for the experimental part:
TT dimer-UV exposure assay: The testing system used for this assay was the MatTek EpiDerm®, a skin model that consists of normal human-derived epidermal keratinocytes cultured to form a multilayered, highly differentiated model of the human epidermis. For this study, the tissues were treated topically overnight with either test materials, 1 mM Trolox (positive control), or left untreated (negative control). On the following day, the tissues were exposed to UVB (300 mJ/cm^2). Following the exposures the DNA was extracted from the EpiDerm tissues and assayed for thymine dimer content. Samples of the DNA were immobilized on a solid membrane support and incubated with an antibody that recognizes thymidine dimers in double stranded DNA. The primary antibody was detected using a secondary antibody conjugated to an alkaline phosphatase enzyme followed by the addition of a substrate that the alkaline phosphatase enzyme uses to generate a chemiluminescent signal. The light generated by this reaction was captured using film with the intensity of the light signal being proportional to the amount of the thymine dimers present in the sample. Test material BM was Porphyridium sp. biomass that had been homogenized with a Microfluidizer® twice and then lyophilized. […] Extracted DNA was quantified via a fluorometric assay. […]

The next test deals with hyaluronidase. As to the kind of experiment: Anti-hyaluronidase assay (bHA-coated 96-well plate). To be noted: 0.1%. In kind it is biochemical. As for the experimental part:
Biotinylated hyaluronic acid (bHA) was covalently attached to the wells of a 96-well plate. Samples containing hyaluronidase and various test materials were then added to the wells. The hyaluronidase degrades the bound hyaluronic acid, resulting in a decrease in the amount of biotin covalently linked to the well plate. At the end of the incubation period the reaction was stopped and the well plate was washed to remove the hyaluronidase. The remaining bHA was detected using an avidin bound peroxidase enzyme. When an appropriate substrate is added, the peroxidase enzyme generated a color signal in proportion to the amount of bHA. The color signal was measured spectrophotometrically, and was inversely proportional to the amount of hyaluronidase activity in the sample. […] Also see Frost, G. I., Stern, R. A Microtiter-Based Assay for Hyaluronidase Activity Not Requiring Specialized Reagents. Analytical Biochemistry 251, 263-269: 1997. […]
During the 30 minute incubation, an avidin/biotin-peroxidase complex was prepared in 10.5 ml of PBS containing 0.1% Tween 20 using an ABC kit. […] The plate was incubated in the dark for 10-20 minutes and then read at 460 nm using a plate reader. The substrate solution was also added to three wells that were not treated with test materials or the avidin/biotin-peroxidase solution and were used as a blank for the absorbance measurements. […]

As for `CCCC(=O)[O-].[Na+]` [Na Butyrate, sodium butyrate], the “Type I C-Peptide” value in the test with Fibroblasts is 1425 ± 81 ng/mL.
Consider `CN[C@@H]1[C@H](O)[C@H](NC)[C@H]2O[C@@]3(O)C(=O)C[C@@H](C)O[C@H]3O[C@@H]2[C@H]1O` [Specinomycin], for which the Growth result in test [1] (100.0 ug/ml), in test [1] (250.0 ug/ml) and in test [1] (750.0 ug/ml) was “+ + + +” throughout.
For `Cc1c(C)c2c(c(C)c1O)CCC(C)(C(=O)O)O2` (stereo not drawn) [Trolox], in test [2], the “Optical Density (thymidine dimer)” value turned out to be 107 ± 1 optical density units.
For heparin, the “Percent Inhibition” value in the test with hyaluronidase was determined as 74%.
